These results are taken from US7335665B2, “Spirocyclic piperidines as MCH1 antagonists and uses thereof” (H - Lundbeck A/S, priority 2003, dated 2008).

The first assay deals with T1, rat MCH1 receptor (Rattus norvegicus, UniProt P97639).
T1 construct: expressed in transfected cells; host or cells: Human embryonic kidney Peak rapid 293 cells (Peakr293), transient, calcium phosphate; membranes
T1 sequence (P97639 whole entry): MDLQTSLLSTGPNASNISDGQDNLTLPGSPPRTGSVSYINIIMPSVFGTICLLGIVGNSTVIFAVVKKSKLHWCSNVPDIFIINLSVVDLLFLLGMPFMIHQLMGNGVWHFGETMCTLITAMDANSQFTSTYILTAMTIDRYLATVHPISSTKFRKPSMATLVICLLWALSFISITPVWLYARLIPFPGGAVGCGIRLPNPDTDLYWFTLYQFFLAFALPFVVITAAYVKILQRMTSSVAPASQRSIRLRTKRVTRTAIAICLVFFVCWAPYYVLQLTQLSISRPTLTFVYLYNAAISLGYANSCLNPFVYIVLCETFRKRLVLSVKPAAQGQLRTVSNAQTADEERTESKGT
Briefly: Radioligand binding assay at cloned rat MCH1 receptor ([3H]Compound A displacement). The following applies: KI, cloned rat MCH1, membranes of transfected Peakr293 cells, 0.08 nM [3H]Compound A, 25° C., 90 minutes. The protocol: For binding assays, pellets of transfected cells are suspended in ice-cold buffer (20 mM Tris.HCl, 5 mM EDTA, pH 7.4) and homogenized by sonication for 7 sec. The cell lysates are centrifuged at 200×g for 5 min at 4° C. The supernatants are then centrifuged at 40,000×g for 20 min at 4° C. The resulting pellets are washed once in the homogenization buffer and suspended in binding buffer (see methods for radioligand binding). Protein concentrations are determined by the method of Bradford (1976) using bovine serum albumin as the standard. Binding assays are usually performed immediately, however it is possible to prepare membranes in batch and store frozen in liquid nitrogen for future use.
Radioligand binding assays for the rat MCH1 receptor were carried out using plasmid pcDNA3.1-rMCH1-f (ATCC Patent Deposit Designation No. PTA-3505). Plasmid pcDNA3.1-rMCH1-f comprises the regulatory elements necessary for expression of DNA in a mammalian cell operatively linked to DNA encoding the rat MCH1 receptor so as to permit expression thereof. Plasmid pcDNA3.1-rMCH1-f was deposited on Jul. 5, 2001, with the American Type Culture Collection (ATCC), 12301 Parklawn Drive, Rockville, Md. 20852, U.S.A. under the provisions of the Budapest Treaty for the International Recognition of the Deposit of Microorganisms for the Purposes of Patent Procedure and was accorded ATCC Patent Deposit Designation No. PTA-3505.
Human embryonic kidney Peak rapid 293 cells (Peakr293 cells) were transiently transfected with DNA encoding the MCH1 receptor utilizing the calcium phosphate method and cell membranes were prepared as described above. Binding experiments with membranes from Peakr293 cells transfected with the rat MCH1 receptor were performed with 0.08 nM [^3H]Compound A (custom labeled by Amersham) (the synthesis of Compound A is described in detail below) using an incubation buffer consisting of 50 mM Tris pH 7.4, 10 mM MgCl2, 0.16 mM PMSF, 1 mM 1,10 phenantroline and 0.2% BSA. Binding was performed at 25° C. for 90 minutes. Incubations were terminated by rapid vacuum filtration over GF/C glass fiber filters, presoaked in 5% PEI using […] Tris pH 7.4 as wash buffer. In all experiments, nonspecific binding is defined using […] Compound A.
The compounds described above were assayed using cloned rat MCH1.
Consider `O=C(NCCCN1CCC2(CC1)OCc1ccccc12)C(c1ccccc1)c1ccccc1` [Example 76, 2,2-DIPHENYL-N-(3-(SPIRO[1,3-DIHYDROISOBENZOFURAN-1,4′-PIPERIDINE]-10-YL)PROPYL)ACETAMIDE], for which the inhibition constant Ki was found to be 20.6 nM.
The compound `O=C(NCCCN1CCC2(CC1)OCc1ccccc12)C1(c2ccc(Cl)cc2)CCC1` [Example 87, [(4-CHLOROPHENYL)CYCLOBUTYL]-N-(3-(SPIRO[1,3-DIHYDROISOBENZOFURAN-1,4′-PIPERIDINE]-10-YL)PROPYL)CARBOXAMIDE] showed a Ki of 417 nM.
Same read-out and setting: the result for `O=C(NCCCCCCN1CCC2(CCc3ccccc32)CC1)c1ccc(F)c(F)c1` [Example 19, (3,4-DIFLUOROPHENYL)-N-(6-(SPIRO[INDANE-1,4′-PIPERIDINE]-10-YL)HEXYL)CARBOXAMIDE] reads 412 nM; that for `O=C(NCCCCCCN1CCC2(CCc3ccccc32)CC1)c1cc(F)cc(F)c1` [Example 14], 843 nM; that for `O=C(NCCCN1CCC2(CCc3ccccc32)CC1)C1(c2ccc(F)cc2)CCCC1` [Example 54, [(4-FLUOROPHENYL)CYCLOPENTYL]-N-(3-(SPIRO[INDANE-1,4′-PIPERIDINE]-10-YL)PROPYL)CARBOXAMIDE], 208 nM.
On the same count and under the same terms, for `CC(C(=O)NCCCN1CCC2(CC1)OCc1ccccc12)(c1ccccc1)c1ccccc1` [Example 88, 2,2-DIPHENYL-N-(3-(SPIRO[1,3-DIHYDROISOBENZOFURAN-1,4′-PIPERIDINE]-10-YL)PROPYL)PROPANAMIDE] the value was 144 nM.
Still for that read-out and setting: for `O=C(NCCCN1CCC2(CCc3ccccc32)CC1)c1ccc(Oc2cc(Cl)cc(Cl)c2)o1` [Example 17, [5-(3,5-DICHLOROPHENOXY)(2-FURYL)]-N-(3-(SPIRO[INDANE-1,4′-PIPERIDINE]-10-YL)PROPYL)CARBOXAMIDE] the value was 935 nM.
In the case of `O=C(NCCCN1CCC2(CC1)OCc1ccccc12)C1(c2ccc(F)cc2)CCCCC1` [Example 80, [(4-FLUOROPHENYL)CYCLOHEXYL]-N-(3-(SPIRO[1,3-DIHYDROISOBENZOFURAN-1,4′-PIPERIDINE]-10-YL)PROPYL)CARBOXAMIDE], the Ki was 174 nM.
`O=C(NCCCN1CCC2(CC1)OCc1ccccc12)C(c1ccc(F)cc1)c1ccc(F)cc1` [Example 84, 2,2-BIS(4-FLUOROPHENYL)-N-(3-(SPIRO[1,3-DIHYDROISOBENZOFURAN-1,4′-PIPERIDINE]-10-YL)PROPYL)ACETAMIDE]: the affinity, expressed as Ki, was 4.9 nM.
For the compound `O=C(NCCCCN1CCC2(CCc3ccccc32)CC1)c1sc2ccccc2c1Cl` [Example 34, (3-CHLOROBENZO[B]THIOPHEN-2-YL)-N-(4-(SPIRO[INDANE-1,4′-PIPERIDINE]-10-YL)BUTYL)CARBOXAMIDE], the affinity, expressed as Ki, was 883 nM.
Same read-out and setting: for `CC(C)(C(=O)NCCCN1CCC2(CCc3ccccc32)CC1)c1ccc(Cl)cc1` [Example 46] the value was 84.1 nM; for `Cc1ccc(C(C(=O)NCCCN2CCC3(CCc4ccccc43)CC2)c2ccc(C)cc2)cc1` [Example 48, 2,2-BIS(4-METHYL)PHENYL)-N-(3-(SPIRO[INDANE-1,4′-PIPERIDINE]-10-YL)PROPYL)ACETAMIDE], 29.7 nM.
On the same count and under the same terms, for `O=C1OC2(CCN(CCCNC(=O)C(c3ccc(Cl)cc3)c3ccc(Cl)cc3)CC2)c2ccccc21` [Example 94, 2,2-BIS(4-CHLOROPHENYL)-N-[3-(1-OXOSPIRO[3-HYDROISOBENZOFURAN-3,4′-PIPERIDINE]-10-YL)PROPYL]ACETAMIDE] the value was 600 nM.

Still in this assay, the particulars now being: cloned rat MCH1, membranes of transfected Peakr293 cells, 0.08 nM [3H]Compound A, 25° C., 90 minutes; read-out: KI.
In the case of `CC(C(=O)NCCCN1CCC2(CCc3ccccc32)CC1)c1ccc(Cl)cc1` (stereo not drawn) [Example 50, 2-(4-CHLOROPHENYL)-N-(3-(SPIRO[INDANE-1,4′-PIPERIDINE]-10-YL)PROPYL)PROPANAMIDE], the Ki was 194 nM.
On the same count and under the same terms, for `CC(C)(C(=O)NCCCN1CCC2(CC1)OCc1ccccc12)c1ccc(Cl)cc1` [Example 81, 2-(4-CHLOROPHENYL)-2-METHYL-N-(3-(SPIRO[1,3-DIHYDROISOBENZOFURAN-1,4′-PIPERIDINE]-10-YL)PROPYL)PROPANAMIDE] the value was 185 nM; for `O=C(NCCCCCN1CCC2(CCc3ccccc32)CC1)Nc1cc(Cl)cc(Cl)c1` [Example 25, N-(3,5-DICHLOROPHENYL)[(5-(SPIRO[INDANE-1,4′-PIPERIDINE]-10-YL)PENTYL)AMINO]CARBOXAMIDE], 542 nM.
The same measure, in the same setting: for `CC(C(=O)NCCCN1CCC2(CCc3ccccc32)CC1)(c1ccccc1)c1ccccc1` [Example 47, 2,2-DIPHENYL-N-(3-(SPIRO[INDANE-1,4′-PIPERIDINE]-10-YL)PROPYL)PROPANAMIDE] the value was 154 nM.
Same read-out and setting: the result for `Cc1ccc2c(c1)COC21CCN(CCCNC(=O)C(c2ccccc2)c2ccccc2)CC1` [Example 103, N-[3-(5-METHYLSPIRO[1,3-DIHYDROISOBENZOFURAN-1,4′-PIPERIDINE]-10-YL)PROPYL]-2,2-DIPHENYLACETAMIDE] reads 14.7 nM; that for `O=S(=O)(NCCCCCN1CCC2(CCc3ccccc32)CC1)c1cccc(C(F)(F)F)c1` [Example 21, (5-(SPIRO[INDANE-1,4′-PIPERIDINE]-10-YL)PENTYL){[3-(TRIFLUORO-METHYL)PHENYL]SULFONYL}AMINE], 992 nM; that for `O=C(NCCCN1CCC2(CCc3ccccc32)CC1)C1(c2ccc(Cl)cc2)CC1` [Example 58, [1-(4-CHLOROPHENYL)CYCLOPROPYL]-N-(3-(SPIRO[INDANE-1,4′-PIPERIDINE]-10-YL)PROPYL)CARBOXAMIDE], 150 nM.
For `O=C(NCCCCCN1CCC2(CCc3ccccc32)CC1)c1cccnc1Oc1ccc(Cl)cc1` [Example 31, [2-(4-CHLOROPHENOXY)(3-PYRIDYL)]-N-(5-(SPIRO[INDANE-1,4′-PIPERIDINE]-10-YL)PENTYL)CARBOXAMIDE], the Ki turned out to be 212 nM.
The same measure, in the same setting: for `O=C(NCCCN1CCC2(CC1)OCc1ccccc12)C1(c2ccc(Cl)cc2)CC1` [Example 89, [(4-CHLOROPHENYL)CYCLOPROPYL]-N-(3-(SPIRO[1,3-DIHYDROISOBENZOFURAN-1,4′-PIPERIDINE]-10-YL)PROPYL)CARBOXAMIDE] the value was 481 nM; for `O=C(NCCCN1CCC2(CCc3ccccc32)CC1)C1(c2ccc(Cl)cc2)CCCC1` [Example 52, [1-(4-CHLOROPHENYL)CYCLOPENTYL]-N-(3-(SPIRO[INDANE-1,4′-PIPERIDINE]-10-YL)PROPYL)CARBOXAMIDE], 112 nM; for `O=C(NCCCN1CCC2(C=Cc3ccccc32)CC1)C1(c2ccc(Cl)cc2)CCC1` [Example 74, [(4-CHLOROPHENYL)CYCLOBUTYL]-N-(3-(SPIRO[INDENE-1,4′-PIPERIDINE]-10-YL)PROPYL)CARBOXAMIDE], 185 nM.
Still for that read-out and setting: for `O=C(NCCN1CCC2(CCc3ccccc32)CC1)c1cccc(Cl)c1` [Example 43, (3-CHLOROPHENYL)-N-(2-(SPIRO[INDANE-1,4′-PIPERIDINE]-10-YLETHYL)CARBOXAMIDE] the value was 507 nM.
The same measure, in the same setting: the result for `O=C(NCCCN1CCC2(CCCc3ccccc32)CC1)C(c1ccccc1)c1ccccc1` [Example 96, 2,2-DIPHENYL-N-(3-(SPIRO[1,2,3,4-TETRAHYDRONAPHTHALENE-1,4′-PIPERIDINE]-11-YL) PROPYL)ACETAMIDE] reads 128 nM.
Consider `O=C(NCCCN1CCC2(C=Cc3ccccc32)CC1)C(c1ccc(Cl)cc1)c1ccc(Cl)cc1` [Example 68, 2,2-BIS(4-CHLOROPHENYL)-N-(3-(SPIRO[INDENE-1,4′-PIPERIDINE]-10-YL)PROPYL)ACETAMIDE], for which the Ki was 5.8 nM.

The term Ki denotes a dissociation constant, usually derived from enzyme kinetics or from competition with a known ligand.
